Data published in ChEMBL document CHEMBL1201861, “Genomics of Drug Sensitity in Cancer screening data, Wellcome Trust Sanger Institute”.

Experiments:
Test in all cases: cells
ACN = type: functional, cell-based, Homo sapiens; conditions: Homo sapiens, ACN;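 further: growth inhibition of the human ACN cell line, read out via cell viability testing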
Description: SANGER: Inhibition of human ACN cell growth in a cell viability assay.

CCRF-CEM = type: functional, cell-based, Homo sapiens; conditions: Homo sapiens, CCRF-CEM;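 further: inhibition of CCRF-CEM cell growth, measured by a cell viability assay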
Description: SANGER: Inhibition of human CCRF-CEM cell growth in a cell viability assay.

697 = type: functional, cell-based, Homo sapiens; conditions: Homo sapiens
Description: SANGER: Inhibition of human 697 cell growth in a cell viability assay.

KURAMOCHI = type: functional, cell-based, Homo sapiens; conditions: Homo sapiens, KURAMOCHI;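 further: growth inhibition of KURAMOCHI cells, read out with a cell viability assay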
Description: SANGER: Inhibition of human KURAMOCHI cell growth in a cell viability assay.

DoTc2-4510 = type: functional, cell-based; conditions: Homo sapiens
NCI-H1299 = type: functional, cell-based; conditions: Homo sapiens;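 further: growth inhibition of human NCI-H1299 cells, read out by a cell viability assay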
Description: SANGER: Inhibition of human NCI-H1299 cell growth in a cell viability assay.

A498 = type: functional, cell-based, Homo sapiens; conditions: Homo sapiens, A498;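 further: growth inhibition of human A498 cells, read out with a cell viability assay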
Description: SANGER: Inhibition of human A498 cell growth in a cell viability assay.

KM-H2 = type: functional, cell-based, Homo sapiens; conditions: Homo sapiens, KM-H2;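 further: growth inhibition of KM-H2 cells, read out by a cell viability assay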
Description: SANGER: Inhibition of human KM-H2 cell growth in a cell viability assay.

NH-12 = type: functional, cell-based, Homo sapiens; conditions: Homo sapiens, NH-12;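 further: growth inhibition of NH-12 cells, read out with a cell viability assay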
Description: SANGER: Inhibition of human NH-12 cell growth in a cell viability assay.

NCI-H226 = type: functional, cell-based, Homo sapiens; conditions: Homo sapiens, NCI-H226;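 further: cell viability read-out used to gauge growth inhibition of the cells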
Description: SANGER: Inhibition of human NCI-H226 cell growth in a cell viability assay.

RPMI-8866 = type: functional, cell-based, Homo sapiens; conditions: Homo sapiens, RPMI-8866
Description: SANGER: Inhibition of human RPMI-8866 cell growth in a cell viability assay.

DU-4475 = type: functional, cell-based, Homo sapiens; conditions: Homo sapiens, DU-4475
Description: SANGER: Inhibition of human DU-4475 cell growth in a cell viability assay.

JVM-2 = type: functional, cell-based, Homo sapiens; conditions: Homo sapiens, JVM-2;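 further: growth inhibition of JVM-2 cells determined by a cell viability assay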
Description: SANGER: Inhibition of human JVM-2 cell growth in a cell viability assay.

MHH-PREB-1 = type: functional, cell-based, Homo sapiens; conditions: Homo sapiens, MHH-PREB-1;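 further: cell viability assay measuring inhibition of proliferation of human MHH-PREB-1 cells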
Description: SANGER: Inhibition of human MHH-PREB-1 cell growth in a cell viability assay.

MZ7-mel = type: functional, cell-based, Homo sapiens; conditions: Homo sapiens, MZ7-mel;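 further: growth inhibition of human MZ7-mel cells, measured by a cell viability assay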
Description: SANGER: Inhibition of human MZ7-mel cell growth in a cell viability assay.

8-MG-BA = type: functional, cell-based, Homo sapiens; conditions: Homo sapiens, 8-MG-BA;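 further: growth inhibition of 8-MG-BA cells, read out with a cell viability assay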
Description: SANGER: Inhibition of human 8-MG-BA cell growth in a cell viability assay.

HH = type: functional, cell-based, Homo sapiens; conditions: Homo sapiens, HH
Description: SANGER: Inhibition of human HH cell growth in a cell viability assay.

OS-RC-2 = type: functional, cell-based, Homo sapiens; conditions: Homo sapiens, OS-RC-2;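 further: growth inhibition of human OS-RC-2 cells, measured by a cell viability assay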
Description: SANGER: Inhibition of human OS-RC-2 cell growth in a cell viability assay.

ES4 = type: functional, cell-based, Homo sapiens; conditions: Homo sapiens, ES4;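 further: growth inhibition of human ES4 cells, read out by a cell viability assay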
Description: SANGER: Inhibition of human ES4 cell growth in a cell viability assay.

Mo = type: functional, cell-based, Homo sapiens; conditions: Homo sapiens, Mo
Description: SANGER: Inhibition of human Mo-T cell growth in a cell viability assay.

HD-MY-Z = type: functional, cell-based, Homo sapiens; conditions: Homo sapiens, HD-MY-Z;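 further: growth inhibition of HD-MY-Z cells, read out with a cell viability assay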
Description: SANGER: Inhibition of human HD-MY-Z cell growth in a cell viability assay.

HCE-T = type: functional, cell-based, Homo sapiens; conditions: Homo sapiens, HCE-T;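 further: cell viability assay read-out, reporting inhibition of HCE-T cell growth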
Description: SANGER: Inhibition of human HCE-T cell growth in a cell viability assay.

ONS-76 = type: functional, cell-based, Homo sapiens; conditions: Homo sapiens, ONS-76;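 further: growth inhibition of human ONS-76 cells, read out with a cell viability assay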
Description: SANGER: Inhibition of human ONS-76 cell growth in a cell viability assay.

LS-513 = type: functional, cell-based, Homo sapiens; conditions: Homo sapiens, LS-513
Description: SANGER: Inhibition of human LS-513 cell growth in a cell viability assay.

SNU-5 = type: functional, cell-based, Homo sapiens; conditions: Homo sapiens, SNU-5;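 further: cell viability readout used to measure growth inhibition in human NCI-SNU-5 cells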
Description: SANGER: Inhibition of human NCI-SNU-5 cell growth in a cell viability assay.

IA-LM = type: functional, cell-based; conditions: Homo sapiens;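 further: cell viability assay measuring growth inhibition of human IA-LM cells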
Description: SANGER: Inhibition of human IA-LM cell growth in a cell viability assay.

SBC-1 = type: functional, cell-based, Homo sapiens; conditions: Homo sapiens, SBC-1;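 further: cell viability assay measuring growth inhibition of the SBC-1 cell line, IC50 being the concentration that halves growth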
Description: SANGER: Inhibition of human SBC-1 cell growth in a cell viability assay.

L-363 = type: functional, cell-based, Homo sapiens; conditions: Homo sapiens, L-363
Description: SANGER: Inhibition of human L-363 cell growth in a cell viability assay.

LB2241-RCC = type: functional, cell-based, Homo sapiens; conditions: Homo sapiens, LB2241-RCC;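 further: cell viability assay measuring how strongly the cultured human renal carcinoma line is prevented from growing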
Description: SANGER: Inhibition of human LB2241-RCC cell growth in a cell viability assay.

C8166 = type: functional, cell-based, Homo sapiens; conditions: Homo sapiens, C8166;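 further: growth inhibition of human C8166 cells measured by a cell viability assay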
Description: SANGER: Inhibition of human C8166 cell growth in a cell viability assay.

BB30-HNC = type: functional, cell-based, Homo sapiens; conditions: Homo sapiens, BB30-HNC;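 further: growth inhibition of the cultured cell line, read out by a cell viability assay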
Description: SANGER: Inhibition of human BB30-HNC cell growth in a cell viability assay.

NCI-H1650 = type: functional, cell-based, Homo sapiens; conditions: Homo sapiens, NCI-H1650;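 further: growth inhibition of human NCI-H1650 cells measured by a cell viability assay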
Description: SANGER: Inhibition of human NCI-H1650 cell growth in a cell viability assay.

NCI-H1155 = type: functional, cell-based, Homo sapiens; conditions: Homo sapiens, NCI-H1155;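 further: cell growth inhibition measured by a viability assay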
Description: SANGER: Inhibition of human NCI-H1155 cell growth in a cell viability assay.

SCC-15 = type: functional, cell-based, Homo sapiens; conditions: Homo sapiens, SCC-15;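 further: growth inhibition of SCC-15 cells, read out with a cell viability assay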
Description: SANGER: Inhibition of human SCC-15 cell growth in a cell viability assay.

IST-SL1 = type: functional, cell-based, Homo sapiens; conditions: Homo sapiens, IST-SL1;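 further: growth inhibition of human IST-SL1 cells, read out with a cell viability assay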
Description: SANGER: Inhibition of human IST-SL1 cell growth in a cell viability assay.

NCI-N87 = type: functional, cell-based; conditions: Homo sapiens;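 further: growth inhibition of human NCI-N87 cells, read out with a cell viability assay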
Description: SANGER: Inhibition of human NCI-N87 cell growth in a cell viability assay.

LOX IMVI = type: functional, cell-based, Homo sapiens; conditions: Homo sapiens, LOX IMVI
Description: SANGER: Inhibition of human LOXIMVI cell growth in a cell viability assay.

MV4-11 = type: functional, cell-based, Homo sapiens, MV-4-11; conditions: Homo sapiens, MV4-11;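 further: cell viability readout measuring growth inhibition of human MV-4-11 cells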
Description: SANGER: Inhibition of human MV-4-11 cell growth in a cell viability assay.

NCI-H23 = type: functional, cell-based, Homo sapiens; conditions: Homo sapiens, NCI-H23;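 further: cell viability assay measuring growth inhibition of NCI-H23 cells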
Description: SANGER: Inhibition of human NCI-H23 cell growth in a cell viability assay.

HCC2157 = type: functional, cell-based, Homo sapiens; conditions: Homo sapiens, HCC2157;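 further: growth inhibition of the cancer cell line, read out as cell viability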
Description: SANGER: Inhibition of human HCC2157 cell growth in a cell viability assay.

JAR = type: functional, cell-based, Homo sapiens; conditions: Homo sapiens, JAR;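 further: growth inhibition of human JAR cells determined with a cell viability assay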
Description: SANGER: Inhibition of human JAR cell growth in a cell viability assay.

SK-PN-DW = type: functional, cell-based, Homo sapiens; conditions: Homo sapiens, SK-PN-DW;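 further: growth inhibition measured with a viability assay on these cells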
Description: SANGER: Inhibition of human SK-PN-DW cell growth in a cell viability assay.

SK-N-FI = type: functional, cell-based, Homo sapiens; conditions: Homo sapiens, SK-N-FI;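 further: cell viability assay measuring growth inhibition of human SK-N-FI cells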
Description: SANGER: Inhibition of human SK-N-FI cell growth in a cell viability assay.

NCI-H720 = type: functional, cell-based, Homo sapiens; conditions: Homo sapiens, NCI-H720;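 further: growth inhibition of human NCI-H720 cells determined by a cell viability assay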
Description: SANGER: Inhibition of human NCI-H720 cell growth in a cell viability assay.

LAMA-84 = type: functional, cell-based, Homo sapiens; conditions: Homo sapiens, LAMA-84;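 further: growth inhibition of LAMA-84 cells, read out with a cell viability assay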
Description: SANGER: Inhibition of human LAMA-84 cell growth in a cell viability assay.

no-10 = type: functional, cell-based, Homo sapiens; conditions: Homo sapiens;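 further: growth inhibition of no-10 cells, read out with a cell viability assay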
Description: SANGER: Inhibition of human no-10 cell growth in a cell viability assay.

IST-MES1 = type: functional, cell-based, Homo sapiens; conditions: Homo sapiens, IST-MES1;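 further: growth inhibition of IST-MES1 cells, measured with a cell viability assay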
Description: SANGER: Inhibition of human IST-MES1 cell growth in a cell viability assay.

DOHH-2 = type: functional, cell-based, Homo sapiens; conditions: Homo sapiens, DOHH-2;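 further: growth inhibition of human DOHH-2 cells, read out with a cell viability assay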
Description: SANGER: Inhibition of human DOHH-2 cell growth in a cell viability assay.

SK-UT-1 = type: functional, cell-based, Homo sapiens; conditions: Homo sapiens, SK-UT-1;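 further: growth inhibition of SK-UT-1 cells, measured by a cell viability assay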
Description: SANGER: Inhibition of human SK-UT-1 cell growth in a cell viability assay.

Compound: NC1(c2ccc(-c3nc4ccn5c(=O)[nH]nc5c4cc3-c3ccccc3)cc2)CCC1 [MK-2206]
- IC50 (ACN): > 4 µM
- IC50 (CCRF-CEM): > 4 µM
- IC50 697: 1.38 µM
- IC50 (KURAMOCHI): > 4 µM
- IC50 (DoTc2-4510): > 4 µM
- IC50 (NCI-H1299): > 4 µM
- IC50 (A498): > 4 µM
- IC50 (KM-H2): > 4 µM
- IC50 (NH-12): > 4 µM
- IC50 (NCI-H226): > 4 µM
- IC50 (RPMI-8866): > 4 µM
- IC50 (DU-4475): > 4 µM
- IC50 (JVM-2): > 4 µM
- IC50 (MHH-PREB-1): 3.72 µM
- IC50 (MZ7-mel): > 4 µM
- IC50 (8-MG-BA): > 4 µM
- IC50 (HH): 0.303 µM
- IC50 (OS-RC-2): 3.11 µM
- IC50 (ES4): > 4 µM
- IC50 (Mo): > 4 µM
- IC50 (HD-MY-Z): > 4 µM
- IC50 (HCE-T): > 4 µM
- IC50 (ONS-76): > 4 µM
- IC50 (LS-513): 2.33 µM
- IC50 (SNU-5): > 4 µM
- IC50 (IA-LM): > 4 µM
- IC50 (SBC-1): 0.44 µM
- IC50 (L-363): 0.834 µM
- IC50 (LB2241-RCC): 0.997 µM
- IC50 (C8166): > 4 µM
- IC50 (BB30-HNC): > 4 µM
- IC50 (NCI-H1650): > 4 µM
- IC50 (NCI-H1155): > 4 µM
- IC50 (SCC-15): > 4 µM
- IC50 (IST-SL1): > 4 µM
- IC50 (NCI-N87): > 4 µM
- IC50 (LOX IMVI): > 4 µM
- IC50 (MV4-11): 2.75 µM
- IC50 (NCI-H23): > 4 µM
- IC50 (HCC2157): 3.38 µM
- IC50 (JAR): > 4 µM
- IC50 (SK-PN-DW): > 4 µM
- IC50 (SK-N-FI): > 4 µM
- IC50 (NCI-H720): 0.377 µM
- IC50 (LAMA-84): > 4 µM
- IC50 (no-10): > 4 µM
- IC50 (IST-MES1): > 4 µM
- IC50 (DOHH-2): 1.28 µM

Compound: O=C1NC(=O)c2c1c(-c1ccccc1Cl)cc1[nH]c3ccc(O)cc3c21
- IC50 (ACN): > 2 µM
- IC50 (CCRF-CEM): > 2 µM
- IC50 697: 0.431 µM
- IC50 (KURAMOCHI): > 2 µM
- IC50 (DoTc2-4510): > 2 µM
- IC50 (NCI-H1299): > 2 µM
- IC50 (A498): > 2 µM
- IC50 (KM-H2): > 2 µM
- IC50 (NH-12): > 2 µM
- IC50 (NCI-H226): > 2 µM
- IC50 (RPMI-8866): > 2 µM
- IC50 (DU-4475): > 2 µM
- IC50 (JVM-2): > 2 µM
- IC50 (MHH-PREB-1): 0.523 µM
- IC50 (MZ7-mel): > 2 µM
- IC50 (8-MG-BA): 1.55 µM
- IC50 (HH): 1.64 µM
- IC50 (OS-RC-2): > 2 µM
- IC50 (ES4): 0.924 µM
- IC50 (Mo): > 2 µM
- IC50 (SK-UT-1): > 2 µM
- IC50 (HCE-T): > 2 µM
- IC50 (ONS-76): > 2 µM
- IC50 (LS-513): > 2 µM
- IC50 (SNU-5): > 2 µM
- IC50 (IA-LM): > 2 µM
- IC50 (SBC-1): > 2 µM
- IC50 (L-363): 1.53 µM
- IC50 (LB2241-RCC): 0.394 µM
- IC50 (C8166): > 2 µM
- IC50 (BB30-HNC): 1.36 µM
- IC50 (NCI-H1650): > 2 µM
- IC50 (NCI-H1155): > 2 µM
- IC50 (SCC-15): > 2 µM
- IC50 (IST-SL1): 1.46 µM
- IC50 (NCI-N87): > 2 µM
- IC50 (LOX IMVI): > 2 µM
- IC50 (MV4-11): 0.809 µM
- IC50 (NCI-H23): > 2 µM
- IC50 (HCC2157): 1.57 µM
- IC50 (JAR): > 2 µM
- IC50 (SK-PN-DW): > 2 µM
- IC50 (SK-N-FI): > 2 µM
- IC50 (NCI-H720): 1.7 µM
- IC50 (LAMA-84): > 2 µM
- IC50 (no-10): > 2 µM
- IC50 (IST-MES1): > 2 µM
- IC50 (DOHH-2): > 2 µM

Compound: CN(C)CCOc1ccc(-c2nc(-c3ccncc3)c(-c3ccc4c(c3)CC/C4=N\O)[nH]2)cc1 [SB590885]
- IC50 (ACN): 1.15 µM
- IC50 (CCRF-CEM): > 5 µM
- IC50 697: > 5 µM
- IC50 (KURAMOCHI): > 5 µM
- IC50 (DoTc2-4510): > 5 µM
- IC50 (NCI-H1299): > 5 µM
- IC50 (A498): > 5 µM
- IC50 (KM-H2): > 5 µM
- IC50 (NH-12): > 5 µM
- IC50 (NCI-H226): > 5 µM
- IC50 (RPMI-8866): > 5 µM
- IC50 (DU-4475): 0.0235 µM
- IC50 (JVM-2): > 5 µM
- IC50 (MHH-PREB-1): > 5 µM
- IC50 (MZ7-mel): > 5 µM
- IC50 (8-MG-BA): > 5 µM
- IC50 (HH): > 5 µM
- IC50 (OS-RC-2): > 5 µM
- IC50 (ES4): > 5 µM
- IC50 (Mo): > 5 µM
- IC50 (HD-MY-Z): > 5 µM
- IC50 (HCE-T): > 5 µM
- IC50 (ONS-76): > 5 µM
- IC50 (LS-513): > 5 µM
- IC50 (SNU-5): 1.58 µM
- IC50 (IA-LM): > 5 µM
- IC50 (SBC-1): > 5 µM
- IC50 (L-363): 4.69 µM
- IC50 (LB2241-RCC): > 5 µM
- IC50 (C8166): > 5 µM
- IC50 (BB30-HNC): > 5 µM
- IC50 (NCI-H1650): > 5 µM
- IC50 (NCI-H1155): > 5 µM
- IC50 (SCC-15): > 5 µM
- IC50 (IST-SL1): > 5 µM
- IC50 (NCI-N87): > 5 µM
- IC50 (LOX IMVI): 3.19 µM
- IC50 (MV4-11): > 5 µM
- IC50 (NCI-H23): > 5 µM
- IC50 (HCC2157): > 5 µM
- IC50 (JAR): > 5 µM
- IC50 (SK-PN-DW): > 5 µM
- IC50 (SK-N-FI): > 5 µM
- IC50 (NCI-H720): > 5 µM
- IC50 (LAMA-84): > 5 µM
- IC50 (no-10): > 5 µM
- IC50 (IST-MES1): > 5 µM
- IC50 (DOHH-2): > 5 µM
